Experimental data: patent publication US10640457B2, “Histone acetyltransferase activators and uses thereof” (The Trustees of Columbia University in the City of New York, priority 2009, dated 2020)
Entries after “also recorded” stand apart in the source; their conditions may differ.

Key:
[1] = test system: acetylated H4; assay: Western blot of hippocampal acetylated H4 after fear conditioning (TSA); type: in vivo, mice
Description: We will also test if defects seen in APP/PS1 mice, compared to WT littermates, are due to epigenetic effects. […] (each herein incorporated by reference in its entirety). Acetylation of H4 in hippocampus from WT and APP/PS1 animals was measured. Vehicle control solution was administered i.p. 2 hrs before FC training. 1 hr after contextual FC, the APP/PS1 and WT mice were euthanized and hippocampi were extracted. […] Whether HDAC inhibition might rescue the histone 4 acetylation levels defect observed in APP/PS1 mice was also tested. Injection of TSA (2 μg/g body weight; i.p) 2 hours prior to contextual fear conditioning enhanced H4 acetylation of APP/PS1 mice (FIG. 22). Without being bound by theory, AD is likely to be a disease with an epigenetic motif and HDAC inhibitors can elevate decreased levels of histone 4 in an AD mouse model.
APP/PS1 mice display a reduced endogenous level of histone 4 acetylation in response to a learning task. Given that HDAC inhibitors are known to acetylate other molecules besides histones [B49] […] We measured acetylation of H4 in hippocampus from 3 to 4 month old wild-type (WT) and APP/PS1 animals, after training for fear conditioning. […]

[2] = test system: Aβ42-infused mice; assay: Two day radial arm water maze in Aβ-infused mice (YF2); type: in vivo
Source text: The task is a hybrid of the Morris Water Maze (MWM) and the radial arm land maze. This task is altered in Aβ-infused mice. The motivation for the animals is the immersion in water. The mouse needed to swim in 6 alleys (arms) radiating from a central area until it found a hidden (submerged) platform at the end of one of the arms, based on visual cues placed in the room. […] The first day of the protocol was a training day. Mice were trained to identify the platform location by alternating between a visible and a hidden platform in a goal arm. The final 3 trials on day 1 and all 15 trials on day 2 used a hidden escape platform to force mice to use spatial cues to identify the location of the goal arm.
To avoid learning limitations imposed by exhausting practice and to avoid fatigue that may result from consecutive trials, spaced practice training were established by running the mice in cohorts of 4 and alternating different cohorts through the 15 training trials over 3 hours testing periods each day. […] The number of incorrect arm entries (entries in arms with no platform) was counted. […] Failure to select an arm after 15 sec were counted as an error and the mouse was returned to the start arm. […]
Next, mice from the first cohort completed trials 7-12 again using the alternating visible-hidden platform location. […] For data analysis, averages for each mouse were calculated using blocks of 3 trials. […]

[3] = test system: YAC128 mice; assay: Open field in YAC128 Huntington's Disease mice; type: in vivo; settings: for effect of treatment on total locomotion (distance traveled, 30 min): age 6 mo., YF2 5 mg/kg
Description: Animals: Mouse models of Huntington's Disease (YAC128) versus wildtype (WT) littermates.
Open field: This assay is a common assay used to monitor total spontaneous locomotor activity and exploratory behavior in mouse models of Huntington's disease (HD). The spontaneous locomotor activity of the animals was measured using an automated photo-beam open-field system (Med-Associates, St Albans, Vt.). Mice were placed individually in the center of a clear open-field chamber (27.9 cm×27.9 cm×20 cm), and their horizontal and vertical activities were measured immediately for 30 min with three 16-beam UR arrays. Locomotor activity was assessed as the distance traveled in 5-min intervals. The number of mice typically used for open field range from 12 to 15 mice.

Row | Structure (SMILES) | H4 acetylation in hippocampus of APP/PS1 mice ([1]; TSA 2 mg/kg i.p. 2 hours prior to fear conditioning, 1 hour after training) | H4 acetylation levels in WT mice ([1]; TSA 2 mg/kg i.p., vs vehicle-treated WT) | RAWM performance, compound by itself ([2]; 5 mg/kg i.p., no Aβ) | Aβ-induced reference memory impairment (RAWM errors) ([2]; Aβ42-infused mice, i.p. 5 mg/kg 30 min prior to 1st and 7th trial, 5 mg/kg) | effect of treatment on total rearing or vertical movements ([3]; female YAC128 mice) | effect of treatment on total locomotion (distance traveled, 30 min) ([3]; female mice) | effect of treatment on total rearing or vertical movements ([3]; male YAC128 mice) | effect of treatment on total locomotion (distance traveled, 30 min) ([3]; male mice)
1 | CC(/C=C/C(=O)NO)=C\[C@@H](C)C(=O)c1ccc(N(C)C)cc1 [TSA, trichostatin A] | enhanced; also recorded: rescued; also recorded: enhancement | increased |  |  |  |  |  | 
2 | CCOc1cccc(OCCN(C)C)c1C(=O)Nc1ccc(Cl)c(C(F)(F)F)c1 [YF2] |  |  | did not affect | ameliorated; also recorded: rescued | no significant effect | diminish significantly (i.e. worsen) | no significant effect | no significant effect
